The values below come from patent publication US11179397B2, “Imidazopyrimidine derivatives” (Gilead Sciences, Inc., priority 2018, dated 2021).

The target of test [1] is SHP-2 full length protein (Homo sapiens (Human), UniProt Q06124). The test is described as follows: SHP-2 biochemical DiFMUP pseudosubstrate-fluorogenic assay. Conditions: 0.2 nM SHP-2, 1 μM IRS-1 activator peptide, 50 μM DiFMUP; read-out: SHP2 IC50. The procedure:
SHP-2 Biochemical Assay Materials Recombinant SHP-2 full length protein was generated in house. SHP-2 protein tyrosine phosphatase (PTP) domain protein (Catalog number SPR0217-20 ug), NaCl (Catalog number S6546-1L), and KCl (Catalog number 60142-500 mL) were purchased from Sigma-Aldrich (St. Louis, Mo.). IRS-1_[…](dPEG8)[…] peptide […]) was custom made by AnaSpec (Fremont, Calif.). DiFMUP substrate (Catalog number D6567), EDTA (Catalog number E177-500 mL), DTT (Catalog number P2325), and 384-well black polystyrene non-binding surface (Catalog number 3820) were purchased from Fisher Scientific (Hanover Park, Ill.). HEPES (Catalog number 15630-080) was purchased from Life Technologies (Pleasanton, Calif.), and Tween-20 (Catalog number 95059-250) was purchased from VWR (Radnor, Pa.). Method Inhibition of SHP-2 activity by small molecule inhibitors was monitored by a biochemical DiFMUP pseudosubstrate-fluorogenic assay. […] The reaction mix was added to the 384-well non-binding plate which had been pre-spotted with 1:3 serial diluted compounds from 10,000-0.005 nM, and incubated at room temperature for 90 min. DiFMUP substrate at final concentration of 50 μM was then added to the wells and incubated for additional 30 min at room temperature. The final reaction volume was 20 μl/well. […] The inhibitor dose response curves were generated using normalized IC50 regression curve fitting by in house dose response analysis tools. The wells with DMSO vehicle were used as controls (100% signal). The percent (%) control of SHP-2 compound was calculated as: (Compound well fluorescence counts/DMSO fluorescence counts)×100%.

Test [2] concerns NCI-H358 cells. The test is described as follows: NCI-H358 3D tumor spheroid growth inhibition. Format: cell-based. The following applies: Homo sapiens, NCI-H358, 168 h, 3D spheroids, 7 days, 3D CellTiter Glo; cellular IC50 designated EC50; read-out: H358 EC50. From the text: SHP-2 Cell Based Assay: […] Materials NCI-H358 cell line was purchased from [NT] number ATCC CRL-5807) (Manassas, Va.). RPMI-1640 (Catalog number 10-040-CM) was from Corning Cellgro (Manassas, Va.), Fetal Bovine Serum (FBS) (Catalog number SH30071.03) was from HyClone (Logan, Utanh), and 100× Penicillin/Streptomycin/L-Glutamine stock (Catalog no. 30-009-CI) and 384-well ULA plates (Catalog number 3830) were from Corning (Fremont, Calif.). Method […] At the day of assay, the cells were trypsinized and seeded at 1000 cells/70 μl/well in 384-well ULA plates and incubated at 37° C. incubator with 5% CO2 to allow spheroids to form. […] The plates were incubated for additional 7 days. Then 35 μl of medium from each well was removed, and replaced with 35 μl of 3D CellTiter Glo reagent from Promega. The wells were mixed by pipetting up and down with Biomek FX for 15 times to induce cell lysis and the plates were incubated at room temperature for additional 10 min to stabilize luminescent signal. The luminescence was then read by Envision. The inhibitor dose response curves were generated using normalized cellular IC50 (designated as EC50 in all FIGURES to distinguish from biochemical IC50s) by in house dose response analyses tools. The wells with DMSO vehicle were used as negative controls (0% inhibition). The % inhibition of SHP-2 compounds was calculated as: 100-[(Compound well luminescence counts/DMSO luminescence counts)×100%].
For orientation: In ATP-based viability assays light output follows the ATP content of the culture.

Sequence of SHP-2 full length protein (Q06124 whole entry): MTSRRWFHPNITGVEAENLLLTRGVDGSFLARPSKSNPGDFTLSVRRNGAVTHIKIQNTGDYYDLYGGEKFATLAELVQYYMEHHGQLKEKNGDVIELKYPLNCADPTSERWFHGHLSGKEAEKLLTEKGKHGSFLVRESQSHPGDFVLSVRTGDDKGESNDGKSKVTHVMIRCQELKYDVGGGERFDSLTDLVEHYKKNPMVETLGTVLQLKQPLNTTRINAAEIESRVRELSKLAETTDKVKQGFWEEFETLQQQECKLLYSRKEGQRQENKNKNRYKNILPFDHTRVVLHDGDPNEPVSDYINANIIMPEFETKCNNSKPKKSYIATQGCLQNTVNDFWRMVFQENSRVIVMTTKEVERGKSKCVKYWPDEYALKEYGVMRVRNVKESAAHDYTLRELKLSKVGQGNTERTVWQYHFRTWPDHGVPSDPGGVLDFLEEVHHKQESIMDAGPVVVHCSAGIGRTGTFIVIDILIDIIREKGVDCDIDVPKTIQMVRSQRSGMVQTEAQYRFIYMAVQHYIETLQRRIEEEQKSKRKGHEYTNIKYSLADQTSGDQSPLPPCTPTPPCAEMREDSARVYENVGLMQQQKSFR

On to `NC1CC2CN(c3ncc(Sc4cccc(Cl)c4Cl)c4nccn34)CC2C1` (stereo not drawn) [Example 40, 2-(8-((2,3-dichlorophenyl)thio)imidazo[1,2-c]pyrimidin-5-yl)octahydrocyclopenta[c]pyrrol-5-amine], for which the IC50 – broadly, the point on the concentration scale where inhibition reaches its midpoint – in test [1] was 190 nM. Further, the 50% effective concentration (EC50) – broadly, the concentration at which the effect is half-maximal – in test [2] amounted to 3200 nM.

Regarding `NCC1CC2CN(c3ncc(Sc4cccc(Cl)c4Cl)c4nccn34)CC2C1` (stereo not drawn) [Example 41, (2-(8-((2,3-dichlorophenyl)thio)imidazo[1,2-c]pyrimidin-5-yl)octahydrocyclopenta[c]pyrrol-5-yl)methanamine], the half-inhibitory concentration (IC50) in test [1] is 150 nM. For the same molecule, the EC50 in test [2] came to 3200 nM.

Turning to `NC[C@H]1[C@H]2CN(c3ncc(Sc4cccc(Cl)c4Cl)c4nccn34)C[C@@H]12` [Example 42, ((1R,5S,6r)-3-(8-((2,3-dichlorophenyl)thio)imidazo[1,2-c]pyrimidin-5-yl)-3-azabicyclo[3.1.0]hexan-6-yl)methanamine], in test [1], the IC50 was 80 nM. Further, the EC50 in test [2] was found to be 1300 nM.

For `N[C@@H]1CCCC12CCN(c1ncc(Sc3cccc(Cl)c3Cl)c3nccn13)CC2` [Example 44, (R)-8-(8-((2,3-dichlorophenyl)thio)imidazo[1,2-c]pyrimidin-5-yl)-8-azaspiro[4.5]decan-1-amine], the IC50 in test [1] stood at 2.8 nM. For the same molecule, in test [2], the EC50 worked out at 130 nM.

For the molecule `Nc1nccc(Sc2cnc(N3CCC4(CCC[C@H]4N)CC3)n3ccnc23)c1Cl` [Example 45, (R)-8-(8-((2-amino-3-chloropyridin-4-yl)thio)imidazo[1,2-c]pyrimidin-5-yl)-8-azaspiro[4.5]decan-1-amine], in test [1], the 50% inhibitory concentration (IC50) came to 5.6 nM. In addition, the EC50 in test [2] was found to be 170 nM.

On to `N[C@@H]1CCCC12CCN(c1ncc(Sc3ccnc(Cl)c3Cl)c3nccn13)CC2` [Example 46, (R)-8-(8-((2,3-dichloropyridin-4-yl)thio)imidazo[1,2-c]pyrimidin-5-yl)-8-azaspiro[4.5]decan-1-amine], for which the IC50 in test [1] is 3.1 nM. In addition, in test [2], the EC50 is 31 nM.

Take `Cc1nccc(Sc2cnc(N3CCC4(CCC[C@H]4N)CC3)n3ccnc23)c1Cl` [Example 47, (R)-8-(8-((3-chloro-2-methylpyridin-4-yl)thio)imidazo[1,2-c]pyrimidin-5-yl)-8-azaspiro[4.5]decan-1-amine]: the IC50 in test [1] turned out to be 7.6 nM. In addition, the concentration for a half-maximal effect (EC50) in test [2] amounted to 150 nM.

With `CC1(N)CCN(c2ncc(Sc3cccc(Cl)c3Cl)c3nccn23)CC1` [Example 48, 1-(8-((2,3-dichlorophenyl)thio)imidazo[1,2-c]pyrimidin-5-yl)-4-methylpiperidin-4-amine], in test [1], the IC50 is 120 nM. For the same molecule, in test [2], the EC50 came to 1700 nM.

As for `N[C@@H]1CCCC12CCN(c1ncc(-c3cccc(Cl)c3Cl)c3nccn13)CC2` [Example 52, (R)-8-(8-(2,3-dichlorophenyl)imidazo[1,2-c]pyrimidin-5-yl)-8-azaspiro[4.5]decan-1-amine], in test [1], the IC50 stood at 280 nM. Further, in test [2], the 50% effective concentration (EC50) was above 12500 nM.

As to `C[C@@H]1OCC2(CCN(c3ncc(Sc4cccc(Cl)c4Cl)c4nccn34)CC2)[C@@H]1N` [Example 55, (3S,4S)-8-(8-((2,3-dichlorophenyl)thio)imidazo[1,2-c]pyrimidin-5-yl)-3-methyl-2-oxa-8-azaspiro[4.5]decan-4-amine], in test [1], the half-inhibitory concentration (IC50) amounted to 1.5 nM. Besides, in test [2], the EC50 is 49 nM.

Take `NC1CCCN(c2ncc(Sc3cccc(Cl)c3Cl)c3nccn23)CC1` (stereo not drawn) [Example 56, 1-(8-((2,3-dichlorophenyl)thio)imidazo[1,2-c]pyrimidin-5-yl)azepan-4-amine]: in test [1], the IC50 is 75 nM. For the same molecule, the half-maximal effective concentration (EC50) in test [2] was 990 nM.

Regarding `Clc1cccc(Sc2cnc(N3CCC4(CCCCN4)CC3)n3ccnc23)c1Cl` [Example 57, 9-(8-((2,3-dichlorophenyl)thio)imidazo[1,2-c]pyrimidin-5-yl)-1,9-diazaspiro[5.5]undecane], in test [1], the IC50 came out at 500 nM. Further, the EC50 in test [2] was above 12500 nM.

As for `NC1CC2(CCN(c3ncc(Sc4cccc(Cl)c4Cl)c4nccn34)C2)C1` (stereo not drawn) [Example 58, 6-(8-((2,3-dichlorophenyl)thio)imidazo[1,2-c]pyrimidin-5-yl)-6-azaspiro[3.4]octan-2-amine], the IC50 in test [1] is 340 nM. Further, in test [2], the EC50 was determined as 4400 nM.

Consider `CC1(N)CCN(c2ncc(Sc3cccc(Cl)c3Cl)c3nncn23)CC1` [Example 61, 1-(8-((2,3-dichlorophenyl)thio)-[1,2,4]triazolo[4,3-c]pyrimidin-5-yl)-4-methylpiperidin-4-amine], for which the concentration for half-maximal inhibition (IC50) in test [1] was found to be 130 nM. For the same molecule, the EC50 in test [2] turned out to be 2300 nM.

Regarding `CC1(N)CCN(c2ncc(Sc3cccc(Cl)c3Cl)c3ncnn23)CC1` [Example 62, 1-(8-((2,3-dichlorophenyl)thio)-[1,2,4]triazolo[1,5-c]pyrimidin-5-yl)-4-methylpiperidin-4-amine], in test [1], the half-maximal inhibitory concentration (IC50) came out at 1300 nM. Besides, in test [2], the half-maximal effective concentration (EC50) was above 12500 nM.

On to `Nc1nccc(Sc2cnc(N3CCC4(CCC[C@H]4N)CC3)n3cnnc23)c1Cl` [Example 63, (R)-8-(8-((2-amino-3-chloropyridin-4-yl)thio)-[1,2,4]triazolo[4,3-c]pyrimidin-5-yl)-8-azaspiro[4.5]decan-1-amine], for which the IC50 in test [1] was 13 nM. For the same molecule, in test [2], the EC50 came out at 580 nM.

On to `Cc1nc(N2CCC3(CCC[C@H]3N)CC2)n2cnnc2c1-c1cnc(N)c(Cl)c1Cl` [Example 66, (R)-8-(8-(6-amino-4,5-dichloropyridin-3-yl)-7-methyl-[1,2,4]triazolo[4,3-c]pyrimidin-5-yl)-8-azaspiro[4.5]decan-1-amine], for which the 50% inhibitory concentration (IC50) in test [1] worked out at 140 nM. Further, in test [2], the 50% effective concentration (EC50) was determined as 2900 nM.

Consider `Cc1nc(N2CCC3(CC2)CO[C@@H](C)[C@H]3N)n2cnnc2c1-c1cccc(Cl)c1Cl` [Example 67, (3S,4S)-8-(8-(2,3-dichlorophenyl)-7-methyl-[1,2,4]triazolo[4,3-c]pyrimidin-5-yl)-3-methyl-2-oxa-8-azaspiro[4.5]decan-4-amine], for which the 50% inhibitory concentration (IC50) in test [1] is 6.4 nM. In addition, in test [2], the concentration giving a half-maximal response (EC50) is 100 nM.

Take `Cc1nc(N2CCC3(CC2)C[C@@H](O)C[C@H]3N)n2cnnc2c1-c1cccc(Cl)c1Cl` [Example 68, (2R,4R)-4-amino-8-(8-(2,3-dichlorophenyl)-7-methyl-[1,2,4]triazolo[4,3-c]pyrimidin-5-yl)-8-azaspiro[4.5]decan-2-ol]: the half-maximal inhibitory concentration (IC50) in test [1] was determined as 9.4 nM. In addition, in test [2], the concentration for a half-maximal effect (EC50) was found to be 440 nM.

With `N[C@@H]1CCCC12CCN(c1nc(Cl)c(-c3cccc(Cl)c3Cl)c3nccn13)CC2` [Example 69, (R)-8-(7-chloro-8-(2,3-dichlorophenyl)imidazo[1,2-c]pyrimidin-5-yl)-8-azaspiro[4.5]decan-1-amine], in test [1], the half-inhibitory concentration (IC50) turned out to be 3.1 nM. Also, in test [2], the concentration giving a half-maximal response (EC50) was found to be 86 nM.

Take `N[C@@H]1CCCC12CCN(c1ncc(Sc3cncc4ccccc34)c3nccn13)CC2` [Example 70, (R)-8-(8-(isoquinolin-4-ylthio)imidazo[1,2-c]pyrimidin-5-yl)-8-azaspiro[4.5]decan-1-amine]: the half-maximal inhibitory concentration (IC50) in test [1] is 670 nM. Besides, the EC50 in test [2] was found to be 3900 nM.

On to `C[C@@H]1OCC2(CCN(c3ncc(Oc4cccc(Cl)c4Cl)c4nccn34)CC2)[C@@H]1N` [Example 71, (3S,4S)-8-(8-(2,3-dichlorophenoxy)imidazo[1,2-c]pyrimidin-5-yl)-3-methyl-2-oxa-8-azaspiro[4.5]decan-4-amine], for which, in test [1], the IC50 came out at 120 nM. Moreover, the EC50 in test [2] was 1400 nM.

Consider `N[C@@H]1CCCC12CCN(c1ncc(Nc3cccc(Cl)c3Cl)c3nccn13)CC2` [Example 72, (R)-8-(8-((2,3-dichlorophenyl)amino)imidazo[1,2-c]pyrimidin-5-yl)-8-azaspiro[4.5]decan-1-amine], for which the half-inhibitory concentration (IC50) in test [1] stood at 2000 nM. The 50% effective concentration (EC50) in test [2] is above 12500 nM.

As to `Cc1nc(N2CCC3(CCC[C@H]3N)CC2)n2ccnc2c1-c1ccc2cn[nH]c2c1` [Example 73, (R)-8-(8-(1H-indazol-6-yl)-7-methylimidazo[1,2-c]pyrimidin-5-yl)-8-azaspiro[4.5]decan-1-amine], the IC50 in test [1] came to 30 nM. Also, the EC50 in test [2] was found to be 550 nM.
